Literature values, collected in US20240100117A1, “NUTRITION-BASED METHOD FOR MANAGING ANIMAL BEHAVIOR” (Morgenstern & Associates, LLC, priority 2022, published 2024).

Columns and labels:
[1] = general reference values; at room temperature
[2] = test system: conversion of 5-HTP to serotonin; details: supplementation, primate animal models

SMILES	viscosity [1]	conversion of 5-HTP to serotonin [2]
OCC(O)CO [glycerin]	about 950 cP	
O [water]	about 1 cP	
Cc1ncc(CO)c(CO)c1O [vitamin B6, pyridoxine]		increased the conversion of 5-HTP to serotonin
